Results: patent US20060210622A1, “Surface modified particulate compositions of biologically active substances” (Skyepharma Canada Inc., priority 1999, published 2006)
Converted amounts (≈) assume the structure as drawn.

Legend:
[1] = Precipitation behavior of benzyl benzoate solution transferred to water, optical microscope under polarized light; assay type: physicochemical
Source text: A portion of the ursodiol solution in benzyl benzoate was transferred to water and shaken. A mixture containing oily droplets resulted. […] This observation makes it possible to further prepare compositions of ursodiol utilizing appropriate solvent system and surface active agents so that micron-sized particle will be generated spontaneously upon addition of these compositions in aqueous media.

physchem = assay type: physicochemical
Description: Solubility of biologically active substances, particularly drug substances in lipophilic and hydrophilic solvents. […] The solvents mentioned in the following table were evaluated. Solubilities, determined by high performance liquid chromatography (HPLC) assay of the dissolved drug in water and several non-aqueous vehicles, are given the following table in units of mg/mL. Low solubility of this drug in either water or organic solvents renders it suitable for formulating as a stable surface modified particulate dispersion in a non-aqueous carrier system.

Size of crystalline particles observed in the mixture ([1]; benzyl benzoate solution in water, optical microscope, polarized light)	Precipitation on transfer of solution to water ([1]; benzyl benzoate solution transferred to water and shaken)	Solubility in pharmaceutically acceptable lipophilic vehicles (physchem)	solubility (physchem; water, Solubility of Itraconazole) [µg/mL]	SMILES
below 10 micron	No precipitation was seen occurring			C[C@H](CCC(=O)O)[C@H]1CC[C@H]2[C@@H]3[C@@H](O)C[C@@H]4C[C@H](O)CC[C@]4(C)[C@H]3CC[C@]12C [ursodiol]
		very poorly soluble	10 (≈ 14.2 µM)	CCC(C)n1ncn(-c2ccc(N3CCN(c4ccc(OCC5COC(Cn6cncn6)(c6ccc(Cl)cc6Cl)O5)cc4)CC3)cc2)c1=O (stereo not shown) [Itraconazole]
